In US8445542B2, “Methods of accelerating muscle growth, decreasing fat deposits and improving feed efficiency in livestock animals” (Bridge Pharma, Inc., priority 2006, dated 2013):

Tests used:
[1] = tested on: adrenergic beta-receptor; test: Adrenergic beta-receptor stimulating activity of the isomers; details: compared with RR-ractopamine; this document and Shappell et al, 2000
Text: J. Anim. Sci. 2000, 78: 699-708, which publication is hereby included in its entirety by reference.)

[2] = molecular target: beta-3 receptors (Homo sapiens, UniProt P13945); details: background statement; cited from earlier work
[3] = tested on: mice; test: Stress testing in mice, methodology of Aberg (U.S. Pat. No. 6,372,799)
[4] = tested on: livestock animals; details: Marchant-Forde et al., cited from earlier work; for tachycardia in livestock animals: 2003 and London et al. 2005
[5] = molecular target: adrenergic beta-3 receptors (Homo sapiens, UniProt P13945); test: Receptor binding, beta-3 (present studies)
[6] = tested on: adrenergic beta-receptors in adipose tissue; details: animals exposed to the drug; Spurlock et al. 1994; cited from earlier work
[7] = tested on: laboratory animals; test: Neuropharmacological profile (Irwin test), repeated oral administration
[8] = tested on: adrenergic alpha-receptors; details: isolated smooth and cardiac muscle tissues of rat and guinea pig; Colbert et al. 1991; cited from earlier work
[9] = molecular target: porcine adrenergic β-2 receptors (Sus scrofa, UniProt Q28997); details: Mills et al., 2003; cited from earlier work
[10] = tested on: mice; test: Spontaneous motor activity in mice (part of Irwin tests); type: in vivo; details: oral
[11] = molecular target: adrenergic beta-1 receptors (Homo sapiens, UniProt P08588); test: Receptor binding studies, beta-1
Text: Interesting and important advantages of receptor selectivity by RR-ractopamine were found.

[12] = Optical stability
[13] = tested on: Airway smooth muscle tissues; test: Airway smooth muscle contracted by carbachol; details: ongoing studies
Text: Airway smooth muscle tissues were contracted by carbachol. The inhibitory effects of isomers, enantiomeric pairs and a racemic mixture of ractopamine are being investigated.
Test results from these functional studies verify and support the results from the receptor binding studies.

beta-3 receptors, sequence (P13945 whole entry): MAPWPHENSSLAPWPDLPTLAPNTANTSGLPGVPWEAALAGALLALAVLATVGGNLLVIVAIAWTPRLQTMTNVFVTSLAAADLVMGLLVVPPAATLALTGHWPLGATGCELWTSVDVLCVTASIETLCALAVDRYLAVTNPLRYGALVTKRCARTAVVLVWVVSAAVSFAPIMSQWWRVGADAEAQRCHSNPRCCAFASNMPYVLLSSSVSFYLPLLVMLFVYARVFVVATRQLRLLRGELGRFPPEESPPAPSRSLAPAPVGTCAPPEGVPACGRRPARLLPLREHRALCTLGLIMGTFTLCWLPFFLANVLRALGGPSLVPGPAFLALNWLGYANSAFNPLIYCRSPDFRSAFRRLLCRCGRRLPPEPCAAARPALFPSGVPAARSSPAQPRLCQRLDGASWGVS
adrenergic beta-3 receptors, sequence (P13945 whole entry): as above
porcine adrenergic β-2 receptors, sequence (Q28997 whole entry): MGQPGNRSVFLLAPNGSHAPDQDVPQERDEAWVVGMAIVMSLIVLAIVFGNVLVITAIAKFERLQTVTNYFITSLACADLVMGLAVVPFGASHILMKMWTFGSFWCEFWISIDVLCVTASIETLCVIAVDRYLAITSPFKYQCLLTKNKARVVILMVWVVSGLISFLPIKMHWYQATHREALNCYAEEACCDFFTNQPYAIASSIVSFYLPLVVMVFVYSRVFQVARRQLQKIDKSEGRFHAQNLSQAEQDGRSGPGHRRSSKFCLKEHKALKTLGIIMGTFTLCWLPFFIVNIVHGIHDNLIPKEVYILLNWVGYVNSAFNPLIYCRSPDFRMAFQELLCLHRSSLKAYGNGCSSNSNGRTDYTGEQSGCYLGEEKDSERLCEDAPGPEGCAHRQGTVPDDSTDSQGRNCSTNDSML
adrenergic beta-1 receptors, sequence (P08588 whole entry): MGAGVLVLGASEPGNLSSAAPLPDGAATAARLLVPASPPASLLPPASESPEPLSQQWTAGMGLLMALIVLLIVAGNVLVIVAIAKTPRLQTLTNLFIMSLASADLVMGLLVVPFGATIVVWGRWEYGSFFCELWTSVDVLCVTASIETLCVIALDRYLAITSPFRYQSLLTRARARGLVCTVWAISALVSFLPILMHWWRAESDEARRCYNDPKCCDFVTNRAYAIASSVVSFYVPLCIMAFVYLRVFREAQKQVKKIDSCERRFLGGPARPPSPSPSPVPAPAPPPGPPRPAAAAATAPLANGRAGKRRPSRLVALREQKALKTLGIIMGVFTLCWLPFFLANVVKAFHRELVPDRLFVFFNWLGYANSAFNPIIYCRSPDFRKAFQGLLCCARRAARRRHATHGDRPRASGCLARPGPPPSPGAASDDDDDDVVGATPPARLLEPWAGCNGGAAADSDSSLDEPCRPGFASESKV

CC(CCc1ccc(O)cc1)NCC(O)c1ccc(O)cc1 (centres unmarked) [RS]
adrenergic beta-receptor stimulating activity [1]: reduced beta-receptor activity

CC(CCc1ccc(O)cc1)NCC(O)c1ccc(O)cc1.Cl (racemic) [racemic ractopamine, 4-hydroxy-a-[[[3-(4-hydroxyphenyl)-1-methylpropyl]amino]methyl]benzenemethanol hydrochloride]
affinity for beta-3 receptors [2]: negligible affinity
CNS-mediated stress ([3]; mice, ongoing testing): demonstrate CNS-mediated stress
CNS-mediated stress in livestock animals [4]; 2003: cause CNS-mediated stress
tachycardia in livestock animals [4]: significant tachycardia
affinity for adrenergic beta-3 receptors [5]: neither racemic ractopamine nor any of the ractopamine isomers had affinity
reduction of the concentration of adrenergic beta-receptors in adipose tissue [6]: 50%
stress in Irwin test ([7]; repeated oral administration): produced increased stress
effect on adrenergic alpha-receptors [8]: no significant effect

CC(C)(C)NCC(O)c1ccc(O)c(CO)c1 (centres unmarked) [salbutamol]
affinity for beta-3 receptors [2]: negligible affinity

CC(C)(C)NC[C@H](O)c1ccc(O)c(CO)c1 [R-salbutamol]
tachycardia in livestock animals [4]: not causing tachycardia
stress in Irwin test ([7]; repeated oral administration): no stress

RR-4-hydroxy-a-[[[3-(4-hydroxyphenyl)-1-methylpropyl]amino]methyl]benzenemethanol [RR-ractopamine]
binding affinity relative to the racemic mixture of all four isomers [9]: about 2.5 times
CNS-mediated stress ([3]; mouse, in vivo): not causing stress
effect on spontaneous motor activity [10]: no statistically significant effects
affinity for adrenergic beta-1 receptors compared with the racemic mixture of all four isomers [11]: higher affinity
stress in Irwin test ([7]; mouse, in vivo, po): did not cause stress
optical stability [12]: optically stable

C[C@@H](CCc1ccc(O)cc1)NC[C@@H](O)c1ccc(O)cc1 (racemic) [SS-ractopamine]
adrenergic beta-receptor stimulating activity [1]: completely devoid of adrenergic beta-receptor stimulating activity
airway smooth muscle relaxing activity [13]: very weak activity
